Measurements as given in patent EP0684818B1, “METHOD OF REVERSING RESISTANCE OF HIV-1 STRAINS TO ZIDOVUDINE” (priority 1993, dated 1994).
In brackets after ≈: the same amount, converted by molar mass. Several values for one entry are separate records, joined by “and”; a condition that tells them apart may be missing. Equal entries are not always repeated. Where two headings read alike, the source gives them in different places.

Columns and labels:
[1] = system: Wild-type Strain IIIB; assay: Sensitivity of wild-type HIV-1 strain to antiviral compounds (p24 antigen production in PHA-stimulated donor lymphocytes); type: cell-based; details: 50% inhibition of p24 antigen production, repeated experiment nos.
Description: (§1) An aliquot of a positive isolate was co-cultured with several cultures of PHA-stimulated donor lymphocytes. Serial dilutions of the antiviral compound (α-[(2-nitrophenyl)-amino]-2,6-dichlorobenzeneacetamide (Co. I) or zidovudine) were added to the cultures. Cultures were performed in a 5% CO2 atmosphere at 37°C. Medium and drugs were replaced every 3 to 4 days. When cell death occured, fresh PHA-stimulated donor lymphocytes were added. The cultures were monitored for cytopathic effect and for the presence of p24 antigen in the supernatant. When p24 levels produced in the controls (without antiviral compound) exceeded 1000 pg per milliliter, a p24 antigen test was performed on all cultures treated with antivirals The concentration of antiviral compound that was needed to inhibit 50% of p24 antigen production of the controls, was calculated (IC50). The sensitivity of the isolates obtained from the patient was determined on several occasions at different times (experiment nos.). The nucleotide sequence of the reverse transcriptase was determined in order to identify mutations selected by exposure of the retrovirus to Co. I. The results obtained thus far are shown in table 1.

[2] = system: HIV isolates from the patient; assay: Sensitivity of HIV isolates from the patient to antiviral compounds (p24 antigen production in co-culture with PHA-stimulated donor lymphocytes); type: cell-based, HIV-1; details: for IC50: mutations I135T, Q207E, T215F, K219Q, 50% inhibition of p24 antigen production, repeated experiment nos.
Description: A standard HIV-1 isolation from fresh lymphocytes and fresh plasma was performed at several time points (two months (60 days) before the start of therapy, 1 month (30 days) and 4 months (120 days) after start of the therapy).
Plasma or lymphocytes from the patient were co-cultured with 3·10^6 PHA stimulated (phytohemagglutinin, Sigma, St. Louis, Mo., USA) HIV-1 negative donor lymphocytes. Cultures were performed in a 5% CO2 atmosphere at 37°C. Medium was replaced every 3 to 4 days. When cell death occured, fresh PHA-stimulated donor lymphocytes were added. Every 3 to 4 days, the cultures were monitored for cytopathic effect and for the presence of HIV-1 p24 antigen in the supernatant. Cultures were followed during 5 weeks. A sample was considered positive for virus if the concentration of p24 antigen in the supernatant of the co-culture (determined by a p24 antigen capture test) exceeded 1000 pg per milliliter on a single determination or > 200 pg per milliliter on two consecutive determinations. Supernatants of positive isolates were aliquoted and frozen at -70°C.
as §1

[3] = isolate after four months of Co. I therapy, novel mutation Y181C
[4] = isolate obtained two months before the therapy switch

| Compound | IC50 [1] | IC50 ([1]; Human immunodeficiency virus 1, IIIB, Lymphocyte, read-out: IC50) [µg/mL] | sensitivity of the HIV-1 isolate (in words) [2, 3] | sensitivity of the HIV-1 isolate (in words) [2, 4] | IC50 ([2]; patient isolate at time 120 days after start of Co. I therapy (400 mg t.i.d., po), Y181C) [µg/mL] | IC50 ([2]; patient isolate at time -60 days (two months before start of Co. I therapy)) |
| --- | --- | --- | --- | --- | --- | --- |
| Cc1cn([C@H]2C[C@H](N=[N+]=[N-])[C@@H](CO)O2)c(=O)[nH]c1=O [zidovudine, 3'-azido-3'-deoxythymidine] | 0.001 µg/mL and 0.0008 µg/mL | 0.0011 (≈ 4.12 nM) | acquired again significant sensitivity | resistant |  |  |
| NC(=O)C(Nc1ccccc1[N+](=O)[O-])c1c(Cl)cccc1Cl (stereo not drawn) [Co.I, α-[(2-nitrophenyl)amino]-2,6-dichlorobenzeneacetamide] |  |  | resistant | sensitive | >10 | 0.041 µg/mL and 0.07 µg/mL and 0.073 µg/mL and 0.054 µg/mL |
